# According to publication PMC7590512, “Lysosomal cathepsin creates chimeric epitopes for diabetogenic CD4 T cells via transpeptidation” (The Journal of Experimental Medicine, 2020):
# Columns and labels:
# Cat-L [1] = conditions: estimated by comparison with control peptide LQTLALWSRMDQL; C-peptide plus WE14 with Cat-L
# Excerpt: (§1) For APCs, we used the IA^g7-expressing M12.C3 B cell lymphoma (M12.C3.g7; [Carrasco-Marin et al., 1996]). Four T cell hybridomas were used in various stimulation assays. BDC-2.5 and BDC-10.1 were provided by Dr. Kathryn Haskins (University of Colorado Medical School, Aurora, CO). G7W120 was produced in this laboratory ([Jin et al., 2015]). The insulin B:9-23 reactive AS91 T cell hybridoma ([Levisetti et al., 2007]) was provided by Dr. Emil Unanue (Washington University, St. Louis, MO). T cell hybridomas (10^5 cells) were mixed with either 10^5 paraformaldehyde-fixed APCs or 10^5 unfixed APCs and cultured overnight with various concentrations of synthetic peptide or volumes of a pH-adjusted cathepsin digestion mixture in a final volume of 250 µl. Secreted IL-2 was assayed with a functional assay where the growth and survival of an HT-2 IL-2–dependent cell line was quantified using the dye MTT ([White et al., 2000]) and reported as units per milliliter based on comparison to an IL-2 standard.
# BDC-10.1 T cell = conditions: for stimulation of BDC-10.1 (IL-2): M12.C3.g7 APCs, peptides at the concentrations used in the digests, average of three experiments
# Excerpt: as §1
# livCat-L and recCat-L = conditions: MS/MS
# Cat-L [2] = system: Cat-L
# ChgA-specific T cells = conditions: words; ref Stadinski et al., 2010a; cited from earlier work
# [3] = system: BDC-2.5, BDC-10.1, and G7W-120 T cells
substance,measurement,setting,value
C-peptide,C-peptide converted to a stimulatory peptide,Cat-L [1],2.5–5%
same,stimulation of BDC-10.1 (IL-2),BDC-10.1 T cell,neither C-peptide nor WE14 alone had any activity
same,cleavage of mouse C-peptide,livCat-L and recCat-L,The cleavage after TLAL was found in both digests
LQTLALWSRMDQL,stimulation of BDC-10.1 (IL-2),BDC-10.1 T cell,highly stimulatory
RKLLW-NH2,"inhibition of generation of the active peptide, words",Cat-L [2]; increasing inhibitor concentrations (44-350 µM),inhibited by RKLLW-NH2 in a dose-dependent manner
same,inhibition of generation of the active peptide by Cat-L,"Cat-L [2]; inhibitor at same concentration as C-peptide substrate, livCat-L or recCat-L, preincubated 30 min on ice",~50%
same,inhibition of BDC-10.1 response to 0.17 µM LQTLALWSRMDQL by carried-over inhibitor,BDC-10.1 T cell; control for nonspecific inhibition of the stimulation assay,not inhibitory
WSRMDQLAKELTAE [WE14],agonism for BDC-2.5 and other ChgA-specific T cells,ChgA-specific T cells,weak agonist
same,stimulation of BDC-10.1 (IL-2),BDC-10.1 T cell,neither C-peptide nor WE14 alone had any activity
same,stimulation of three T cells (IL-2),[3],inactive at the concentrations tested here
